{"source": "paper PMC7693184", "about": "(Angewandte Chemie (International Ed. in English), 2020)", "target": "T1, BtuR (ATP:Co(I)rrinoid adenosyltransferase) (Brucella melitensis, UniProt Q8YHV0)", "T1 construct": "gene BMEI0696", "T1 sequence (Q8YHV0 1-189)": "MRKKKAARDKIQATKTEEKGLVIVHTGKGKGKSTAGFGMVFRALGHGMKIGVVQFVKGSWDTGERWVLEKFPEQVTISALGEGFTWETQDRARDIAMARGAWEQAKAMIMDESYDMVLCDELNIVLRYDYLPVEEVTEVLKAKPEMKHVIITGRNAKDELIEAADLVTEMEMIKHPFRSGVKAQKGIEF", "settings": "excess cob(I)alamin as corrinoid substrate; inhibitor 5 μM; not a substrate itself", "data": [{"substance": "nibalamin [Nibl]", "values": [{"measurement": "% inhibition at 5 μM", "result": 60, "unit": "%"}]}]}
